# Laboratory results taken from patent US20230152304A1 (SHENZHEN MINDRAY BIO-MEDICAL ELECTRONICS CO., LTD., priority 2020, published 2023).
# Experiments:
# [1] = test system: platelets; assay: Induction of platelet aggregation in venous blood by inducers (aggregation rate, impedance channel PLT_I); format: cell-based; details: for time until platelet aggregation reached the maximum degree: after inducer was added, different concentrations
# Source text: Platelet aggregation can be induced by a variety of substances, thereby leading to blood coagulation. In order to investigate the disaggregation effects of amino group-containing compounds on platelet aggregation induced by different factors, in this example, substances, which can induce platelet aggregation, in the blood coagulation test scheme were selected according to the existing platelet aggregation pathways, and a variety of platelet aggregation models were established. The substances included adenosine diphosphate (ADP), thrombin (THR), collagen (COL) and ristocetin (RIS). […] In addition, the amino group-containing compounds can also effectively disaggregate the platelets having different inducements and aggregation degrees in certain concentration ranges and time ranges.
# Specifically, several samples of 1 ml of venous blood were taken, and ADP was added to each sample to make the final concentrations be 0.01 mM, 0.25 mM, 0.5 mM and 1 mM respectively. The blood containing aggregated platelets was tested by using a hematology analyzer. The features including numbers, sizes, etc., of various cell particles in the blood were obtained by means of an impedance channel and an optical channel in the hematology analyzer. Normal blood was collected into blood anticoagulant tubes, and then the number of platelet particles detected by the impedance channel in the hematology analyzer was obtained and recorded as (PLT_I). When platelet aggregation occurred, the volume of a particle of the aggregated platelets was much larger than the volume of a single platelet and therefore the accurate count cannot be achieved by means of a corresponding platelet recognition mechanism. As a result, the platelet count was lowered and recorded as PLT_I (aggregated). No amino group-containing compound was added to the diluent of the impedance channel, thus the impedance channel reflected the degree of platelet aggregation in this aggregation model. The platelet count before aggregation was recorded as PLT_I (unaggregated), the platelet count after aggregation was recorded as PLT_I (aggregated), and the aggregation rate=PLT_I (aggregated)/PLT_I (unaggregated). The number of platelet particles tested by means of the optical channel in the hematology analyzer was obtained and recorded as (PLT_O). […] The platelet count before aggregation was recorded as PLT_O (unaggregated), and the platelet count after aggregation was recorded as PLT_O (undisaggregated). […] On the basis of the above principle, the model was established, and the disaggregation effect of the amino group-containing compound was quantitatively determined.
# [2] = pKa of the amino group of the compound; details: pKa
# Source text: For the compound having a plurality of amino groups/imino groups, the pKa of amino group described herein refers to the first dissociation constant, that is, pKa of amino group or imino group which firstly dissociates hydrogen ion.
# [3] = test system: platelet aggregation induced by COL; assay: Disaggregation over time of COL-induced platelet aggregation; format: cell-based; details: FIG. 10; 10 mmol/L, pH 9.5, COL 0.05-20 mM, except lowest concentration
# Description: (§1) Specifically, according to the method similar to Example 1, the amino group-containing compound (1-acetylguanidine) was added to a diluent to treat blood samples in which different concentrations of aggregation inducer were added. Then the samples were tested, in which the test was performed every 5 min after the treatment solution was added to each sample so as to obtain the change of disaggregation rates over time.
# FIG. 9 and FIG. 10 show curve graphs of platelet aggregation tests induced by COL at different concentrations. The substantially same method as the above-mentioned was used, except that ADP was replaced by COL. The concentrations of COL were 0.05 mM, 0.1 mM, 0.5 mM, 1 mM, 5 mM, 10 mM and 20 mM, respectively.
# [4] = test system: aggregated platelets induced by ADP; assay: Platelet disaggregation rate of blood samples with ADP-induced platelet aggregation (hematology analyzer, PLT_O)
# Description: The compounds in Table 1 above were respectively added to a diluent used for a hematology analyzer to prepare blood sample diluents. […] Each of the compounds in Table 1 (at a final concentration 0.01 mol/L) was added to the diluent separately, pH was adjusted to 14, and the osmotic pressure was adjusted to 200 mOsm/L to obtain the treatment solution.
# The venous blood of a healthy subject was collected into blood anticoagulant tubes for later use. Two aliquot blood samples (1 ml/sample) were taken. The above-mentioned diluent was added to one of the samples, the resulting solution was mixed evenly, and then the platelet count was detected in a hematology analyzer (Mindray BC-6000Plus) and recorded as: PLT_O (unaggregated). The platelet aggregation inducer ADP (at a final concentration of 0.01 mmol/L) was added to the other sample, and the resulting solution was mixed evenly. Platelets were aggregated 5 min later, at this time the above-mentioned diluent was added, and then the blood containing the aggregated platelets was detected by the hematology analyzer to obtain the platelet count, which was recorded as: PLT_O (aggregated). Another 1 ml of blood sample was taken, the platelet aggregation inducer ADP (at a final concentration of 0.01 mmol/L) was added, and the resulting solution was mixed evenly. The above-mentioned treatment solution was added 5 min later, the resulting solution was mixed evenly, and then the platelet count of the treated blood was detected by the hematology analyzer and was recorded as: PLT_O (disaggregated).
# [5] = test system: platelet aggregation induced by THR; assay: Disaggregation over time of THR-induced platelet aggregation; format: cell-based; details: FIG. 8; 10 mmol/L, pH 9.5, THR 0.1-0.35 U
# Description: as §1
# Similarly, FIG. 7 and FIG. 8 show curve graphs of platelet aggregation tests induced by THR at different concentrations. The substantially same method as the above-mentioned was used, except that ADP was replaced by THR. The concentrations of THR were 0.1 U, 0.15 U, 0.2 U, 0.23 U, 0.25 U, 0.28 U, 0.30 U and 0.35 U, respectively. […] This was because after a certain concentration of THR was added, soluble fibrinogen converted to […], causing blood coagulation, and platelets were also wrapped by […], resulting in a sharp increase in aggregation rate. […] However, a good disaggregation rate can be achieved when samples were tested immediately after treatment.
# [6] = test system: platelet aggregation induced by RIS; assay: Disaggregation over time of RIS-induced platelet aggregation; format: cell-based; details: FIG. 12; 10 mmol/L, pH 9.5, RIS 0.15-3 mM
# Description: as §1
# FIG. 11 and FIG. 12 show curve graphs of platelet aggregation tests induced by RIS at different concentrations. The substantially same method as the above-mentioned was used, except that ADP was replaced by RIS. The concentrations of RIS were 0.15 mM, 0.375 mM, 0.75 mM, 1.5 mM and 3 mM, respectively. […] In addition, the disaggregation effect of 1-acetylguanidine can reach the highest immediately for RIS at various concentrations, and remained relatively stable within 10 min. The rapid decrease in the disaggregation rate after 15 min was also because the blood in the samples was coagulated.
compound,measurement,setting,value
ristocetin,time until platelet aggregation reached the maximum degree,[1],15 to 20 min
"Nc1ncnc2c1ncn2[C@@H]1O[C@H](COP(=O)(O)OP(=O)(O)O)[C@@H](O)[C@H]1O [ADP, adenosine diphosphate]",platelet aggregation achieved at most,"[1]; FIG. 5, ADP 0.01 mM",about 35%
same,time until platelet aggregation reached the maximum degree,[1],≤ 5 min
CC(=O)NC(=N)N [1-acetylguanidine],pKa,[2]; Example 4,8.33
same,pKa,[2]; Table 4,8.33
same,pKa,[2]; Table 5,8.3
same,time after which the disaggregation effect decreased significantly,[3],4 to 8 min
same,disaggregation rate,"[4]; FIG. 3, ambient pH varied 7.0-10, after pH increase",97.32%
same,disaggregation rate,"[4]; FIG. 3, ambient pH varied 7.0-10, low end of pH range",35.23%
same,disaggregation effect on platelet aggregation with various aggregation degrees,"[4]; FIG. 6, 10 mmol/L, pH 9.5, ADP 0.01-1 mM",remarkable disaggregation effects
same,disaggregation effect,"[4]; FIG. 14, 50 mmol/L (total for combination, equal parts), ADP 0.1 mmol/L",62.14%
same,Platelet disaggregation rate,"[4]; Table 4, pH 10.8, method of Example 1",97.35%
same,disaggregation rate,"[4]; Table 5, pH 9.5, method of Example 1",97.11%
same,time after which the disaggregation effect decreased significantly,[5],1 min
same,time after which the disaggregation rate decreased rapidly,[6],15 min
collagen,degree of platelet aggregation,"[1]; FIG. 9, COL at various concentrations (0.05-20 mM)",~100%
